From US9359281B2, “Enantiomers of 2-hydroxy derivatives of fatty acids” (UNIVERSITAT DE LES ILLES BALEARS, priority 2011, dated 2016)

Key:
[1] = system: Ras protein; assay: Ras translocation from membrane to cytoplasm by confocal microscopy; type: cell-based; settings: human glioma, lung cancer and leukaemia cells
Protocol: The high levels of 2OHOA and SM in the membrane impede the anchoring of the Ras protein on the membrane.
2OHOA increases levels of SM in tumoral cells treated as explained above. […] SM is lipid in the membrane which impedes the bonding of certain molecules involved in the proliferation of cells, such as the Ras protein. In this way, levels of Ras were measured by confocal microscopy, using an antibody marked fluorescently, and we were able to detect that the marker passed from the membrane (FIG. 6: 95-99% of total detected fluorescence in the membrane before treatment) to the cytoplasm (94-97% of fluorescence detected in the inside of the cell after treatment with 2OHOA) in human glioma, lung cancer and leukaemia cells. The translocation of Ras from the membrane to the cytoplasm means an absence of productive interaction between Ras and Receptor-Tirosine-Kinase (RTK) or between Ras and Raf, so the proteins in MAP kinase chain are not activated and the tumoral cells cease to proliferate and programmed cell death starts. Changes in cell physiology induced by the molecules of present invention, have as intermediate effects (prior to the cancer cells death or the regulation of the activity in other cells), the induction of dramatic reductions in DHFR levels and dramatic increases of GFAP levels (FIG. 6).

[2] = system: U118 cells; assay: Nuclear SM levels in U118 cells; type: cell-based, human; settings: U118, 200 μM, 24 hours
Protocol: FIG. 3. Compound 2OHOA induces an increase in nuclear SM. U118 cancer cells were treated for 24 hours with a vehicle (control) or with 2OHOA at a concentration of 200 μM. The values of the ordinate axis represent the average±ESM (n=3-5) of levels of SM compared to the untreated control (100%).
Another effect associated to the reduction in cell proliferation is an increase in the levels of nuclear SM.

[3] = system: enzyme EC 2.7.8.27; assay: Activity of enzyme EC 2.7.8.27 in U118 cells (NBD-Cer to NBD-SM); type: cell-based, human; settings: U118, 200 μM, 5 minutes to 24 hours
Protocol: (§1) FIG. 4. Compound 2OHOA acts directly on enzyme EC 2.7.8.27. In A, B, C, in all cases, we incubated cells or cellular extracts or means of incubation with the fluorescent stratum of this enzyme NBD-Cer (nitro-benzoxadiazol-il) ceramide], in the presence or absence (control, white bars) of 2OHOA (black bars). Then, we extracted the lipids and determined the levels of formation of NBD-SM per HPTLC (HP-TLC, high performance thin layer chromatography). The values are presented on the ordinate axis as the average±ESM (n=3-5).
A. In vivo experiment of the activity of enzyme EC 2.7.8.27: we incubated U118 cells with NBD-Cer for 4 hours and then treated them with compound 2OHOA (200 μM) for different periods of time (5, 15, 60 minutes y 24 hours). Later, the cells homogenised and we measured the metabolisation of fluorofor NBD-Cer to become NBD-SM.
The speed of the phenomenon clearly indicates direct and effective interaction between enantiomer 2OHOA and enzyme EC 2.7.8.27. So, this invention refers to the use of the aforementioned compounds as activators (enantiomer [−]), or inhibitors (enantiomer [+]) specific to enzyme EC 2.7.8.27.

[4] = system: enzyme EC 2.7.8.27; assay: Activity of enzyme EC 2.7.8.27 in cellular extracts (NBD-Cer); type: biochemical; settings: homogenised cells, 200 μM, NBD-Cer 2 hours
Protocol: as §1
B. In vitro experiment of the activity of enzyme EC 2.7.8.27 in cellular extracts, where we measured the activity of the enzyme after killing the cells. […] For these experiments, homogenised cells were incubated with compound 2OHOA (200 μM) and NBD-Cer for 2 hours.

[5] = system: enzyme EC 2.3.1.50; assay: [3H]palmitate incorporation in lipid fractions of U118 cells; type: cell-based, human; parameters: dose or concentration left out as unconfirmed; settings: U118, 24 h
Protocol: FIG. 9. Regulation of the activity of enzyme 2.3.1.50.
We incubated human glioma cells U118 in the presence or absence (control) of 2OHOA ([…], 24 h) and later incubated them with [^3H]palmitate for 5 minutes. After these periods of incubation, we extracted the cellular lipids and separated them by TLC. The bands correspond to each species of lipid extracted and the amount of radioactive palmitate incorporated was measured by liquid shining. As we can see, not only was there an important incorporation of the fraction of the SM (an indicator of the activity of enzyme EC 2.7.8.27), but also in the fraction of the ceramide, which indicates activity of enzyme EC 2.3.1.50 (serin-palmitoil transferase).

[6] = system: Raf, MEK, MAP kinase (ERK1 y ERK2), Akt and EGFR; assay: Immunoblot of phosphorylased signalling proteins; type: cell-based, human
Protocol: D: The state of activity (levels of phosphorylased forms) of Akt and EGFR also decreases after incubating with 250 μM of 2OHOA.

[7] = system: T98G cells; assay: Levels of SM in cell membranes, T98G; type: cell-based, human; settings: 200 μM [−]2OHOA
Protocol: (§2) The levels of SM, cultivated in the absence (control) or presence of 200 μM of [−]2OHOA, in normal cell membranes (MRC-5 and IMR90) were measured, and also in several types of tumoral cells (see Table 2). In all cases, we detected that the membranes of tumoral cells have SM levels of about half or a third of that in normal cells (FIG. 1). We can therefore assert that SM concentration is a biomarker which indicates tumorgenesis in human cells. On the other hand, treatments with the molecules of the present invention induce an increase of SM in the tumour cells which is not naturally occurring. […] For example, the spectrophotometry determination of solution fluorescence of the SM levels is a very simple, quick and efficient analysis method (FIG. 1D). Thus, this invention has generated a method for diagnosis for detecting the described pathological processes and pathologies in which there are SM level changes, and also for monitoring the efficiency of the therapy using molecules of the present invention and others of similar activity. Based on this knowledge, this invention also includes kits for diagnosing these diseases.

[8] = system: A172 cells; assay: Levels of SM in cell membranes, A172; type: cell-based, human; settings: A172, 200 μM [−]2OHOA
Protocol: as §2

[9] = system: U87 cells; assay: Levels of SM in cell membranes, U87; type: cell-based, human; settings: U87, 200 μM [−]2OHOA
Protocol: as §2

[10] = system: SF268 cells; assay: Levels of SM in cell membranes, SF268; type: cell-based, human; settings: SF268, 200 μM [−]2OHOA
Protocol: as §2

[11] = system: U937 cells; assay: Levels of SM in cell membranes, U937; type: cell-based, human; settings: U937, 200 μM [−]2OHOA
Protocol: as §2

[12] = system: HeLa cells; assay: Levels of SM in cell membranes, HeLa; type: cell-based, human; settings: 200 μM [−]2OHOA
Protocol: as §2

[13] = system: HT29 cells; assay: Levels of SM in cell membranes, HT29; type: cell-based, human; settings: HT29, 200 μM [−]2OHOA
Protocol: as §2

[14] = system: SF268 cells; assay: Cell growth inhibition, SF268; type: cell-based, human; parameters: key: +: inhibition of cell growth; −: absence of effect

Compound	Ras fluorescence detected in the inside of the cell after treatment [1]	level of nuclear SM [2]	activation of enzyme EC 2.7.8.27 in cell cultures [3]	activation of enzyme EC 2.7.8.27 in cellular extracts [4]	activity of enzyme EC 2.3.1.50 ([3H]palmitate in ceramide fraction) [5]	state of activity (phosphorylased forms) of Akt and EGFR ([6]; 250 μM)	phosphorylased (active) form of Raf and MEK ([6]; 150, 200 o 250 μM)	state of activity of MAP kinase (ERK1 y ERK2) ([6]; 150, 200 o 250 μM)	% SM after treatment [7] [%]	% SM after treatment [8] [%]	% SM after treatment [9] [%]	% SM after treatment [10] [%]	% SM after treatment [11] [%]	% SM after treatment [12] [%]	% SM after treatment [13] [%]	Effect (anti-proliferation effect) [14]
CCCCCCCC/C=C\CCCCCCC(O)C(=O)O (racemic) [2OHOA, 2-hydroxyoleic acid]	94-97%	increases in the level of nuclear SM	enzymatic activation is visible from the first few minutes of incubation	able to activate enzyme EC 2.7.8.27 by direct interaction	specific activator of enzyme EC 2.3.1.50	decreases	reduction in state of the (active) phosphorylased form of both proteins	dramatic reduction in the state of activity	–	–	–	–	–	–	–	–
CCCCCCCC/C=C\CCCCCCC(O)C(=O)O (stereo not shown) [[−]2OHOA] [[−] HOOC—HOCH—(CH2)6—(CH═CH—CH2)1—(CH2)6—CH3]	–	–	–	–	–	–	–	–	19	23	21	26	24	21	21	+
